Consider 13 compounds from ChEMBL document CHEMBL1909046, “DrugMatrix in vitro pharmacology data”.

Series [1] has as its target T1, Alpha-1A adrenergic receptor (Rattus norvegicus, UniProt P43140).
T1 sequence (P43140 whole entry): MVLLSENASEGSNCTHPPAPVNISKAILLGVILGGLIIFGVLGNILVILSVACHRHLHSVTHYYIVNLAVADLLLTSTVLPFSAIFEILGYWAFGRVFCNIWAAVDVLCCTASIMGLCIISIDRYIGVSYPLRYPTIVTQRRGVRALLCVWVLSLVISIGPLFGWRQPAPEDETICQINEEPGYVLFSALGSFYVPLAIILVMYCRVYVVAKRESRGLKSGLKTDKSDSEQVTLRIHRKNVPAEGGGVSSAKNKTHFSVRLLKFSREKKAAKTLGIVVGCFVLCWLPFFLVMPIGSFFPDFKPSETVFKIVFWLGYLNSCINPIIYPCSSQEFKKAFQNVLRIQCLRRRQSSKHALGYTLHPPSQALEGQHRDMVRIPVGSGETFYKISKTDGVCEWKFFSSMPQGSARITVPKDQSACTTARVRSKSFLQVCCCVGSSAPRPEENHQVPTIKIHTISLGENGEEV
Nature of the series: DRUGMATRIX: Alpha-1A adrenergic receptor radioligand binding (ligand: prazosin). Type of series: cell membranes, Wistar, Submaxillary gland, Membrane. The conditions noted are these: Not Active = under 50% inhibition at 10 µM; for Ki: read-out: Ki.

The target in a further series is T2, Estrogen receptor (Homo sapiens, UniProt P03372). Note: in other assays of this panel Not Active means under 50% inhibition at 10 µM.
T2 sequence (P03372 whole entry): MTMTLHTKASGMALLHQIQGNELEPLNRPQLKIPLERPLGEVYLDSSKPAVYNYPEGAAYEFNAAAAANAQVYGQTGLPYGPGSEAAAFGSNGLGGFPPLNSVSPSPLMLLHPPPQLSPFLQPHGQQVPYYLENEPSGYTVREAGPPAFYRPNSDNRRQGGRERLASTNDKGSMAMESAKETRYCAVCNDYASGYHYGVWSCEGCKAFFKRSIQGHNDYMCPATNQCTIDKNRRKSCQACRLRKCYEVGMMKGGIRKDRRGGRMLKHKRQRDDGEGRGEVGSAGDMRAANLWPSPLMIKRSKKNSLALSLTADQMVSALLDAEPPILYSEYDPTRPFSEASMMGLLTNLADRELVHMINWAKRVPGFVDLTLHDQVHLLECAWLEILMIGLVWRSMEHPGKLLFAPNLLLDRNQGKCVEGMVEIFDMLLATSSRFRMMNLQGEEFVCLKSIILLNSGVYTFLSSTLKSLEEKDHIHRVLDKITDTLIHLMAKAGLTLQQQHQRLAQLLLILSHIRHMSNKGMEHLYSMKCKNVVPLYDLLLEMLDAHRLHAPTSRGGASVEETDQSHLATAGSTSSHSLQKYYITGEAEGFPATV
Particulars: sf9.

For a further series, the target named is T3, Cytochrome P450 1A2 (Homo sapiens, UniProt P05177). Note: in other assays of this panel Not Active means under 50% inhibition at 10 µM.
T3 sequence (P05177 whole entry): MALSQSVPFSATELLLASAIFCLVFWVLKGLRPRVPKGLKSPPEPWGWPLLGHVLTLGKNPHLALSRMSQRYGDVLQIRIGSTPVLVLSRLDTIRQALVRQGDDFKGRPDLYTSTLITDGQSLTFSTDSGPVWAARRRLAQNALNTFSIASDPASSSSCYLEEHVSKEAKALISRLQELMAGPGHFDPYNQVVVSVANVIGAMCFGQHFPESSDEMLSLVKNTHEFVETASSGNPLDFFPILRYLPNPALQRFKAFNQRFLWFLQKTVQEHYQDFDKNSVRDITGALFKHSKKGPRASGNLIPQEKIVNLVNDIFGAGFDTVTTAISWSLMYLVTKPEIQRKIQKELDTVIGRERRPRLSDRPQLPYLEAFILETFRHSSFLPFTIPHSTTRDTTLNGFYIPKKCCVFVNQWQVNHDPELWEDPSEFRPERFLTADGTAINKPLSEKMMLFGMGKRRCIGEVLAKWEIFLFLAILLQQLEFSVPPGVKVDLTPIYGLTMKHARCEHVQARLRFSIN
The conditions noted are these: bti-tn-5b1-4.

In series [2] the target is T4, Muscarinic acetylcholine receptor M5 (Homo sapiens, UniProt P08912). Note: in other assays of this panel Not Active means under 50% inhibition at 10 µM.
T4 sequence (P08912 whole entry): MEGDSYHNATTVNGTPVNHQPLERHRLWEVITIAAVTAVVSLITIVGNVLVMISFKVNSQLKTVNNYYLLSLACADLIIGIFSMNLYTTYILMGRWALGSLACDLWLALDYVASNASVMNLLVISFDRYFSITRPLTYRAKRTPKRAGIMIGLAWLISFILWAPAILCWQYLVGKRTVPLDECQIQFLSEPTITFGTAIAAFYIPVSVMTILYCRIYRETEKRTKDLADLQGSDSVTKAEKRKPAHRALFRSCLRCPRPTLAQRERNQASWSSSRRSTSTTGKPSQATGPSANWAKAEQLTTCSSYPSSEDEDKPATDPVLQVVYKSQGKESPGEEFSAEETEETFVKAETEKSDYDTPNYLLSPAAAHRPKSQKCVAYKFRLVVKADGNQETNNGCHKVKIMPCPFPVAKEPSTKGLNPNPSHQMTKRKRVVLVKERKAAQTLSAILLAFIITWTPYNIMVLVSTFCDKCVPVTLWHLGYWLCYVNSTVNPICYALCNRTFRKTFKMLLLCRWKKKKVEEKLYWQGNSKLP
The format is cell membranes, CHO-K1, Membrane. Particulars: cho-k1.

Series [3] deals with Mitogen-activated protein kinase 1 (Homo sapiens, UniProt P28482). Put plainly: DRUGMATRIX: Protein Serine/Threonine Kinase, ERK2 enzyme inhibition (substrate: Myelin Basic Protein). On the set-up: species or system Escherichia coli. The conditions noted are these: Not Active = under 50% inhibition at 10 µM.
The target of series [4] is T5, Muscarinic acetylcholine receptor M2 (Homo sapiens, UniProt P08172). Note: in other assays of this panel Not Active means under 50% inhibition at 10 µM.
T5 sequence (P08172 whole entry): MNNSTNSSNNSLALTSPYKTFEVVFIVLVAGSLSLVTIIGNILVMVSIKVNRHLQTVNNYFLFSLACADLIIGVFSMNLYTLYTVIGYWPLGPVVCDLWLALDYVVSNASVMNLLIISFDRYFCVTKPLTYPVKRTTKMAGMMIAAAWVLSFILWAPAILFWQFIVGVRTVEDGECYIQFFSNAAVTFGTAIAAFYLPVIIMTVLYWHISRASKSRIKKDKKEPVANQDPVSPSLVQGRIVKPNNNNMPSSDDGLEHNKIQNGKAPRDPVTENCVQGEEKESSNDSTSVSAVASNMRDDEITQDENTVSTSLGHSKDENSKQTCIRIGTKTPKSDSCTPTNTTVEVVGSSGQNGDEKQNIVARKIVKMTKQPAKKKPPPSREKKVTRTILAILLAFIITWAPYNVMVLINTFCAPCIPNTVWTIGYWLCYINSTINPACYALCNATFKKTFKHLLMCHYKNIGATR
The format is cell membranes, CHO-K1, Membrane. Particulars: cho-k1.

Chain of Mitogen-activated protein kinase 1 (P28482 whole entry): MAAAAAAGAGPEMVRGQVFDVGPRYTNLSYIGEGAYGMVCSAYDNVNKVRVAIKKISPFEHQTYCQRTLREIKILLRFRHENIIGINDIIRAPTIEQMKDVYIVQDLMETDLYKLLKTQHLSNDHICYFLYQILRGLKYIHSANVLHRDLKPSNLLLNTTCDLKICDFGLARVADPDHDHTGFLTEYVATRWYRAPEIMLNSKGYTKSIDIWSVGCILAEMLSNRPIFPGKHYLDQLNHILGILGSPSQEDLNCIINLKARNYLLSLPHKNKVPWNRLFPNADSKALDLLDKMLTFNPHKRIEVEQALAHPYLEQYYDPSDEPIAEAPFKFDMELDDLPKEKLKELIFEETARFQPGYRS

A word on the IC50: it is the midpoint of a concentration-inhibition curve. The term Ki denotes the equilibrium dissociation constant of an inhibitor or competing ligand from its target. On to `COCc1c(C(C)C)nc(C(C)C)c(/C=C/[C@@H](O)C[C@@H](O)CC(=O)O)c1-c1ccc(F)cc1` [CERIVASTATIN], for which the IC50 result (in series [1]; on Estrogen receptor; on Cytochrome P450 1A2; in series [2]; in series [3]; in series [4]) was “Not Active” in each case. Besides, at Cytochrome P450 1A2, the Ki result was “Not Active”.
On to `CC(=O)O[C@]1(C(C)=O)CC[C@H]2[C@@H]3C=C(Cl)C4=CC(=O)CC[C@]4(C)[C@H]3CC[C@@]21C` [CHLORMADINONE ACETATE], for which the IC50 result (in series [1]; against Estrogen receptor; at Cytochrome P450 1A2; in series [2]; in series [3]; in series [4]) was “Not Active” in each case. At Cytochrome P450 1A2, the Ki entry is “Not Active”.
With `O=C1CCc2cc(OCCCCc3nnnn3C3CCCCC3)ccc2N1` [CILOSTAZOL], the IC50 result (in series [1]; against Estrogen receptor; on Cytochrome P450 1A2; in series [2]; in series [3]; in series [4]) was “Not Active” throughout. For the same compound, on Cytochrome P450 1A2, the Ki entry is “Not Active”.
As to `CN(C)CCCC1(c2ccc(F)cc2)OCc2cc(C#N)ccc21` (stereo not drawn) [CITALOPRAM], the IC50 in series [1] (read-out: IC50) is 1760 nM; on Estrogen receptor, “Not Active”; against Cytochrome P450 1A2, “Not Active”; in series [2] it was “Not Active”; in series [3], “Not Active”; in series [4] it was “Not Active”. For the same compound, the Ki in series [1] is 711 nM; at Cytochrome P450 1A2, “Not Active”.
`COC(=O)[C@H](c1ccccc1Cl)N1CCc2sccc2C1` [CLOPIDOGREL]: the IC50 entry (in series [1]; on Estrogen receptor; on Cytochrome P450 1A2; in series [2]; in series [3]; in series [4]) was “Not Active” each time. Moreover, at Cytochrome P450 1A2, the Ki result is recorded as “Not Active”.
As for `C[C@]12CCC(=O)C=C1CC[C@@H]1[C@@H]2C(=O)C[C@@]2(C)[C@H]1CC[C@]2(O)C(=O)CO` [CORTISONE], the IC50 result (in series [1]; at Estrogen receptor; against Cytochrome P450 1A2; in series [2]; in series [3]; in series [4]) was “Not Active” each time. For the same compound, the Ki result at Cytochrome P450 1A2 is recorded as “Not Active”.
Turning to `CC1=Nc2ccc(Cl)cc2S(=O)(=O)N1` [DIAZOXIDE], the IC50 entry (in series [1]; against Estrogen receptor; against Cytochrome P450 1A2; in series [2]; in series [3]; in series [4]) was “Not Active” each time. The Ki entry on Cytochrome P450 1A2 is “Not Active”.
For the compound `CN1C[C@H](C(=O)N[C@]2(C)O[C@@]3(O)[C@@H]4CCCN4C(=O)[C@H](Cc4ccccc4)N3C2=O)C=C2c3cccc4[nH]cc(c34)C[C@H]21` [ERGOTAMINE], the IC50 is 8.06 nM in series [1] (read-out: IC50); “Not Active” against Estrogen receptor; “Not Active” against Cytochrome P450 1A2; “Not Active” in series [2]; “Not Active” in series [3]; “Not Active” in series [4]. Besides, the Ki in series [1] was 3.26 nM; on Cytochrome P450 1A2, “Not Active”.
With `CCc1cccc2c3c([nH]c12)C(CC)(CC(=O)O)OCC3` (stereo not drawn) [ETODOLAC], the IC50 result (in series [1]; against Estrogen receptor; on Cytochrome P450 1A2; in series [2]; in series [3]; in series [4]) was “Not Active” in each case. For the same compound, the Ki result on Cytochrome P450 1A2 is “Not Active”.
As for `Cc1c(-c2ccccc2)oc2c(C(=O)OCCN3CCCCC3)cccc2c1=O` [FLAVOXATE], the IC50 entry (in series [1]; on Estrogen receptor; against Cytochrome P450 1A2; in series [2]; in series [3]; in series [4]) was “Not Active” in each case. The Ki result at Cytochrome P450 1A2 is listed as “Not Active”.
As for `Nc1nc(=O)[nH]cc1F` [FLUCYTOSINE], the IC50 result (in series [1]; against Estrogen receptor; on Cytochrome P450 1A2; in series [2]; in series [3]; in series [4]) was “Not Active” each time. In addition, on Cytochrome P450 1A2, the Ki result was “Not Active”.
For `O=C1OC2(c3ccc(O)cc3Oc3cc(O)ccc32)c2ccccc21` [FLUORESCEIN], the IC50 entry (in series [1]; at Estrogen receptor; against Cytochrome P450 1A2; in series [2]; in series [3]; in series [4]) was “Not Active” each time. In addition, the Ki result at Cytochrome P450 1A2 is listed as “Not Active”.
With `CC(=O)[C@@]1(O)CC[C@H]2[C@@H]3C[C@H](C)C4=CC(=O)C=C[C@]4(C)[C@@]3(F)[C@@H](O)C[C@@]21C` [FLUOROMETHOLONE], the IC50 result (in series [1]; at Estrogen receptor; against Cytochrome P450 1A2; in series [2]; in series [3]; in series [4]) was “Not Active” in each case. Moreover, at Cytochrome P450 1A2, the Ki result is recorded as “Not Active”.
